Measurements taken from ChEMBL document CHEMBL4765339, “Design, synthesis, and biological evaluation of 4-substituted-3,4-dihydrobenzo[h]quinoline-2,5,6(1H)-triones as NQO1-directed antitumor agents” (Eur J Med Chem, 2020).

Columns and labels:
[1] = Toxicity in athymic nude mouse xenografted with human HepG2 cells assessed as effect on body weight at 10 to 20 mg/kg, iv administered once every 2 days for 19 days; assay type: organism-based; conditions: in vivo, 456 h, dose 10-20 mg/kg, time 19 day
HepG2 [2] = assay: Induction of apoptosis in human HepG2 cells assessed as early apoptotic cells at 2.2 uM incubated for 24 hrs in presence of dicoumarol by annexinV-FITC and PI staining based flow cytometry analysis (reference value: 2.65 %); assay type: functional
HepG2 [3] = assay: Induction of apoptosis in human HepG2 cells assessed as late apoptotic cells at 2.2 uM incubated for 24 hrs in presence of dicoumarol by annexinV-FITC and PI staining based flow cytometry analysis (reference value: 2.27 %); assay type: functional
HepG2 [4] = assay: Induction of cell cycle arrest in human HepG2 cells assessed as increase in accumulation at S/G2 phase incubated for 24 hrs by PI staining based flow cytometry analysis; assay type: functional; conditions: dose 0.75-3 µM
[5] = Selectivity index, ratio of GI50 for human A549 cells pretreated for 1 hr with ROS scavenger, N-acetyl cysteine followed by incubation with compound for 48 hrs to GI50 for human A549 cells measured after 48 hrs by MTT assay; assay type: functional
A549 = assay: Cytotoxicity against human A549 cells assessed as reduction in cell growth incubated for 48 hrs by MTT assay; assay type: functional
HepG2 [6] = assay: Induction of apoptosis in human HepG2 cells assessed as viable cells at 1.1 uM incubated for 24 hrs by annexinV-FITC and PI staining based flow cytometry analysis (reference value: 94.73 %); assay type: functional; conditions: read-out: Activity
HepG2 [7] = assay: Induction of apoptosis in human HepG2 cells assessed as necrotic cells at 2.2 uM incubated for 24 hrs in presence of dicoumarol by annexinV-FITC and PI staining based flow cytometry analysis (reference value: 0.35 %); assay type: functional
HepG2 [8] = assay: Induction of mitochondrial membrane potential loss in human HepG2 cells at 4.4 uM incubated for 48 hrs by JC-1 staining based flow cytometry analysis (reference value: 2.06 %); assay type: functional
HepG2 [9] = assay: Antitumor activity against human HepG2 cells xenografted in athymic nude mouse assessed as inhibition of tumor growth at 20 mg/kg, iv administered once every 2 days for 19 days by caliper analysis relative to control; assay type: functional; conditions: 456 h, time 19 day
HepG2 [10] = assay: Antitumor activity against human HepG2 cells xenografted in athymic nude mouse assessed as inhibition of tumor growth administered intravenously once every 2 days for 19 days by caliper analysis; assay type: functional, cell-based; conditions: dose 10-20 mg/kg, time 19.0 day
MCF7 = assay: Cytotoxicity against NQO1-rich human MCF7 cells assessed as reduction in cell growth incubated for 48 hrs by MTT assay; assay type: functional

SMILES: COc1ccc(C2CC(=O)NC3=C2C(=O)C(=O)c2ccccc23)cc1O (configuration not stated)
- Activity [1]: Non-Toxic
- Activity (HepG2 [2]): 8.28%
- Activity (HepG2 [3]): 9.46%
- Activity (HepG2 [4]): Dose-dependent effect
- RatioGI50 [5]: 2
- GI50 (A549): 3.13 µM
- viability at 1.1 µM (HepG2 [6]): 82.4%
- Activity (HepG2 [7]): 0.69%
- Activity (HepG2 [8]): 18.12%
- inhibition in vivo at 20 mg/kg (HepG2 [9]): 50.3%
- TGI (HepG2 [10]): Dose-dependent effect
- GI50 (MCF7): 3.06 µM
